# Results from patent US20210024542A1 (Torcept Therapeutics, Inc., priority 2018, published 2021).
# Tests used:
# SW579 = assay: OncoPanel cell proliferation assay, SW579; type: cell-based, human; conditions: for Relative cell count (%) Mean: SW579
# Method: (§1) Cells were grown in RPMI 1640, 10% FBS, 2 mM L-alanyl-L-glutamine, 1 mM Na pyruvate, or a special medium. Cells were seeded into 384-well plates and incubated in a humidified atmosphere of 5% CO2 at 37° C. Compounds were added the day following cell seeding. At the same time, a time zero untreated cell plate was generated. After a 3-day incubation period, cells were fixed and stained to allow fluorescence imaging of nuclei. Compounds (1 mM stock solutions) were serially diluted in half-log steps from the highest test concentration ([…]), and assayed over 10 concentrations with a maximum assay concentration of 0.1% DMSO. Automated fluorescence microscopy was carried out using a Molecular Devices ImageXpress Micro XL high-content imager, and images were collected with a 4× objective. 16-bit TIFF images were acquired and analyzed with MetaXpress 5.1.0.41 software.
# (§2) Cell proliferation was measured by the fluorescence intensity of an incorporated nuclear dye. The output is referred to as the relative cell count, where the measured nuclear intensity is transformed to percent of control (POC) using the following formula: […]
# (§3) Cellular response parameters were calculated using nonlinear regression to a sigmoidal single-site dose response model:
# (§4) Where y is a response measured at concentration x, A and B are the lower and upper limits of the response, C is the concentration at the response midpoint (EC50), and D is the Hill Slope (Ref. 1).
# (§5) EC50 is the test compound concentration at the curve inflection point or half the effective response (parameter C of the fitted curve solution). GI50 is the concentration needed to reduce the observed growth by half (midway between the curve maximum and the time zero value). “Cell Count Activity Area” is an estimate of the integrated area above the curve (Barretina, et al. The Cancer Cell Line Encyclopedia enables predictive modelling of anticancer drug sensitivity. Nature 483: 603-607). […] In rare instances, values <0 or >10 may be observed. […] Curve-fitting, calculations, and report generation was performed using a custom data reduction engine and MathIQ based software (AIM).
# CHP-212 = assay: OncoPanel cell proliferation assay, CHP-212; conditions: for Relative cell count (%) Mean: CHP-212
# Method: (§6) Cells were seeded into 384-well plates and incubated in a humidified atmosphere of 5% CO2 at 37° C. Compounds were added the day following cell seeding. At the same time, a time zero untreated cell plate was generated. After a 3-day incubation period, cells were fixed and stained to allow fluorescence imaging of nuclei. Compounds (1 mM stock solutions) were serially diluted in half-log steps from the highest test concentration (1 micromol), and assayed over 10 concentrations with a maximum assay concentration of 0.1% DMSO. Automated fluorescence microscopy was carried out using a Molecular Devices ImageXpress Micro XL high-content imager, and images were collected with a 4× objective. 16-bit TIFF images were acquired and analyzed with MetaXpress 5.1.0.41 software.
# (§7) GI50 is the concentration needed to reduce the observed growth by half (midway between the curve maximum and the time zero value). […] In rare instances, values <0 or >10 may be observed. […] Curve-fitting, calculations, and report generation was performed using a custom data reduction engine and MathIQ based software (AIM).
# TF-1 = assay: OncoPanel cell proliferation assay, TF-1; type: cell-based, human; conditions: for Relative cell count (%) Mean: TF-1
# Method: as §1, §2, §3, §4, §5
# CML-T1 = assay: OncoPanel cell proliferation assay, CML-T1; type: cell-based, human; conditions: for Relative cell count (%) Mean: CML-T1
# Method: as §1, §2, §3, §4, §5
# SK-NEP-1 = assay: OncoPanel cell proliferation assay, SK-NEP-1; conditions: for Relative cell count (%) Mean: SK-NEP-1
# Method: as §6, §7
# MES-SA = assay: OncoPanel cell proliferation assay, MES-SA; type: cell-based, human
# Method: as §1, §2, §3, §4, §5
structure (smiles),measurement,setting,value
"CO[C@H]1C[C@@H]2CC[C@@H](C)[C@@](O)(O2)C(=O)C(=O)N2CCCC[C@H]2C(=O)O[C@H]([C@H](C)C[C@@H]2C[C@@H]3C[C@H]2C[C@H]3O)CC(=O)[C@H](C)/C=C(\C)[C@@H](O)[C@@H](OC)C(=O)[C@H](C)C[C@H](C)/C=C/C=C/C=C/1C [Formula I, 37R-hydroxynorbornylrapamycin]",EC50,"SW579; Homo sapiens, 72 h, SW579, 3-day incubation, read-out: Cell Count EC50",0.0616 nM
same,GI50,"SW579; Homo sapiens, 72 h, SW579, 3-day incubation, read-out: Cell Count GI50",0.152 nM
same,IC50,"SW579; Homo sapiens, 72 h, SW579, 3-day incubation, read-out: Cell Count IC50",0.367 nM
same,Cell Count Activity Area,"SW579; SW579, scale 0-10",5.31
same,Relative cell count (%) Mean,SW579; 1.00E+00 microM,35.3%
same,Relative cell count (%) Mean,SW579; 1.00E−01 microM,35.8%
same,Relative cell count (%) Mean,SW579; 1.00E−02 microM,42.8%
same,Relative cell count (%) Mean,SW579; 1.00E−03 microM,44.2%
same,Relative cell count (%) Mean,SW579; 1.01E−04 microM,63.2%
same,Relative cell count (%) Mean,SW579; 3.16E−01 microM,37.9%
same,Relative cell count (%) Mean,SW579; 3.17E−02 microM,38.4%
same,Relative cell count (%) Mean,SW579; 3.17E−03 microM,44.6%
same,Relative cell count (%) Mean,SW579; 3.18E−04 microM,48.4%
same,Relative cell count (%) Mean,SW579; 3.18E−05 microM,78.0%
same,Cell Count Activity Area,"CHP-212; CHP-212, scale 0-10",3.70
same,Relative cell count (%) Mean,CHP-212; 1.00E−01 microM,49.6%
same,Relative cell count (%) Mean,CHP-212; 1.00E−02 microM,52.8%
same,Relative cell count (%) Mean,CHP-212; 1.00E−03 microM,56.6%
same,Relative cell count (%) Mean,CHP-212; 1.01E−04 microM,70.6%
same,Relative cell count (%) Mean,CHP-212; 3.16E−01 microM,45.9%
same,Relative cell count (%) Mean,CHP-212; 3.17E−02 microM,49.0%
same,Relative cell count (%) Mean,CHP-212; 3.17E−03 microM,55.3%
same,Relative cell count (%) Mean,CHP-212; 3.18E−04 microM,63.3%
same,Relative cell count (%) Mean,CHP-212; 3.18E−05 microM,86.7%
same,EC50,"CHP-212; Homo sapiens, CHP-212, 72 h, read-out: Cell Count EC50",0.0918 nM
same,GI50,"CHP-212; Homo sapiens, CHP-212, 72 h, read-out: Cell Count GI50",0.125 nM
same,IC50,"CHP-212; Homo sapiens, CHP-212, 72 h, read-out: Cell Count IC50",19.3 nM
same,EC50,"TF-1; Homo sapiens, 72 h, TF-1, 3-day incubation, read-out: Cell Count EC50",> 1000 nM
same,GI50,"TF-1; Homo sapiens, 72 h, TF-1, 3-day incubation, read-out: Cell Count GI50",> 1000 nM
same,IC50,"TF-1; Homo sapiens, 72 h, TF-1, 3-day incubation, read-out: Cell Count IC50",> 1000 nM
same,Cell Count Activity Area,"TF-1; TF-1, scale 0-10",1.64
same,Relative cell count (%) Mean,TF-1; 1.00E+00 microM,80.6%
same,Relative cell count (%) Mean,TF-1; 1.00E−01 microM,80.1%
same,Relative cell count (%) Mean,TF-1; 1.00E−02 microM,81.1%
same,Relative cell count (%) Mean,TF-1; 1.00E−03 microM,87.4%
same,Relative cell count (%) Mean,TF-1; 1.01E−04 microM,97.8%
same,Relative cell count (%) Mean,TF-1; 3.16E−01 microM,80.1%
same,Relative cell count (%) Mean,TF-1; 3.17E−02 microM,81.3%
same,Relative cell count (%) Mean,TF-1; 3.17E−03 microM,88.0%
same,Relative cell count (%) Mean,TF-1; 3.18E−04 microM,88.0%
same,Relative cell count (%) Mean,TF-1; 3.18E−05 microM,96.7%
same,Cell Count Activity Area,"CML-T1; CML-T1, scale 0-10",4.54
same,Relative cell count (%) Mean,CML-T1; 1.00E+00 microM,36.5%
same,Relative cell count (%) Mean,CML-T1; 1.00E−01 microM,42.6%
same,Relative cell count (%) Mean,CML-T1; 1.00E−02 microM,46.7%
same,Relative cell count (%) Mean,CML-T1; 1.00E−03 microM,55.6%
same,Relative cell count (%) Mean,CML-T1; 1.01E−04 microM,83.6%
same,Relative cell count (%) Mean,CML-T1; 3.16E−01 microM,33.1%
same,Relative cell count (%) Mean,CML-T1; 3.17E−02 microM,42.3%
same,Relative cell count (%) Mean,CML-T1; 3.17E−03 microM,49.5%
same,Relative cell count (%) Mean,CML-T1; 3.18E−04 microM,65.3%
same,Relative cell count (%) Mean,CML-T1; 3.18E−05 microM,90.6%
same,EC50,"CML-T1; Homo sapiens, 72 h, CML-T1, 3-day incubation, read-out: Cell Count EC50",0.317 nM
same,GI50,"CML-T1; Homo sapiens, 72 h, CML-T1, 3-day incubation, read-out: Cell Count GI50",0.998 nM
same,IC50,"CML-T1; Homo sapiens, 72 h, CML-T1, 3-day incubation, read-out: Cell Count IC50",2.51 nM
same,EC50,"SK-NEP-1; Homo sapiens, SK-NEP-1, 72 h, read-out: Cell Count EC50",0.706 nM
same,GI50,"SK-NEP-1; Homo sapiens, SK-NEP-1, 72 h, read-out: Cell Count GI50",0.747 nM
same,IC50,"SK-NEP-1; Homo sapiens, SK-NEP-1, 72 h, read-out: Cell Count IC50",2.42 nM
same,Cell Count Activity Area,"SK-NEP-1; SK-NEP-1, scale 0-10",4.35
same,Relative cell count (%) Mean,SK-NEP-1; 1.00E+00 microM,35.6%
same,Relative cell count (%) Mean,SK-NEP-1; 1.00E−01 microM,38.6%
same,Relative cell count (%) Mean,SK-NEP-1; 1.00E−02 microM,45.3%
same,Relative cell count (%) Mean,SK-NEP-1; 1.00E−03 microM,63.5%
same,Relative cell count (%) Mean,SK-NEP-1; 1.01E−04 microM,100.0%
same,Relative cell count (%) Mean,SK-NEP-1; 3.16E−01 microM,35.6%
same,Relative cell count (%) Mean,SK-NEP-1; 3.17E−02 microM,40.0%
same,Relative cell count (%) Mean,SK-NEP-1; 3.17E−03 microM,48.8%
same,Relative cell count (%) Mean,SK-NEP-1; 3.18E−04 microM,83.9%
same,Relative cell count (%) Mean,SK-NEP-1; 3.18E−05 microM,99.4%
same,Relative cell count (%) Mean,MES-SA; 1.00E+00 microM,27.9%
same,Relative cell count (%) Mean,MES-SA; 1.00E−01 microM,28.9%
same,Relative cell count (%) Mean,MES-SA; 1.00E−02 microM,32.0%
same,Relative cell count (%) Mean,MES-SA; 1.00E−03 microM,45.0%
same,Relative cell count (%) Mean,MES-SA; 1.01E−04 microM,93.8%
same,Relative cell count (%) Mean,MES-SA; 3.16E−01 microM,26.8%
same,Relative cell count (%) Mean,MES-SA; 3.17E−02 microM,28.6%
same,Relative cell count (%) Mean,MES-SA; 3.17E−03 microM,37.3%
same,Relative cell count (%) Mean,MES-SA; 3.18E−04 microM,64.3%
same,Relative cell count (%) Mean,MES-SA; 3.18E−05 microM,98.1%
same,EC50,"MES-SA; Homo sapiens, 72 h, 3-day incubation, read-out: Cell Count EC50",0.322 nM
same,GI50,"MES-SA; Homo sapiens, 72 h, 3-day incubation, read-out: Cell Count GI50",0.495 nM
same,IC50,"MES-SA; Homo sapiens, 72 h, 3-day incubation, read-out: Cell Count IC50",0.644 nM
same,Cell Count Activity Area,MES-SA; scale 0-10,5.42
